Square brackets hold non-standard residues; d marks the D form. Peptide text beside a SMILES is read from it. Ala(1H-tetrazol-5-yl) = N[C@@H](Cc1nnn[nH]1)C(=O)O
Experiments:
[1] = test system: neurotrophic keratitis rat model; assay: Superficial punctate keratitis (SPK) score in neurotrophic keratitis rat model; type: in vivo; details: 0.1% eye drops 3 times daily, evaluated 2 weeks after start of eye dropping; FIG. 4
Method: (§1) A rat model was prepared, by subcutaneous administration of capsaicin in the dorsal region of rats, which elicited corneal nerve injury and attenuated corneal sensation while also leading to decreased lacrimal fluid volume and superficial punctate keratitis (SPK) (NPL 3: Investigative Ophthalmology & Visual Science (2012), vol. 53, No. 13, p. 8280-8287). The rats were given PACAP27 and its stabilized peptide eye drops, and the inhibiting effect on corneal damage was examined. The specific experiment method was as follows.
Capsaicin (product of Sigma) was dissolved in PBS containing 10% EtOH and 10% Tween80, and subcutaneously administered to the dorsal region of 4-day-old male Wistar/ST rats at a dose of 50 mg/kg·b·w. […]
SPK was evaluated 2 weeks after the start of eye dropping. […] The eye surface was then observed with a slit lamp microscope, and the degree of corneal damage was evaluated by the method of Murakami et al., Atarashii Ganka 21 (1):87-90 (2004). Specifically, the cornea was divided into 3 regions, the top, center and bottom, and a score was assigned to each region on the following scale, with the value of the total of the scores of the 3 regions being recorded as the SPK score. <Scale> 0: No punctate stains, 1: Sparse (separated punctate fluorescein stains), 2: Intermediate (between 1 and 3), 3: Dense (almost all punctate fluorescein stains adjacent).

[2] = test system: neurotrophic keratitis rat model; assay: Corneal nerve staining, nerve density in neurotrophic keratitis rat model; type: in vivo; details: 0.1% eye drops, capsaicin-treated rats; method and result in present tense
Method: as §1
(§2) Capsaicin (product of Sigma) was dissolved in PBS containing 10% EtOH and 10% Tween80, and subcutaneously administered to the dorsal region of 4-day-old male Wistar/ST rats at a dose of 50 mg/kg·b·w.
The base was prepared by dissolving 0.3 g of trishydroxymethylaminomethane (Nacalai Tesque, Inc.) and 4.4 g of D(−)-mannitol (Nacalai Tesque, Inc.) in 100 mL of sterilized water, adding 1 N·HCl and adjusting the pH to 7. […] Each eye drops was stored at room temperature. […]
After euthanizing rats, the eye bulbs are extracted and immersed in Zamboni solution (product of Wako Pure Chemical Industries, Ltd.), and allowed to stand for 15 minutes at room temperature. […] The nerve density of the swirl structure in the nerve layer is quantified by conducting Sholl analysis using image analysis software (Image J).

[3] = test system: neurotrophic keratitis rat model; assay: Corneal sensation (Cochet-Bonnet) in neurotrophic keratitis rat model; type: in vivo; details: 0.1% eye drops, capsaicin-treated rats; method and result in present tense
Method: as §1, §2
The base was prepared by dissolving 0.3 g of trishydroxymethylaminomethane (Nacalai Tesque, Inc.) and 4.4 g of D(−)-mannitol (Nacalai Tesque, Inc.) in 100 mL of sterilized water, adding 1 N·HCl and adjusting the pH to 7. […] Each eye drops was stored at room temperature. Each eye drop was initially administered 3 weeks after administration of capsaicin, 3 times every day, in an amount of 10 μL for each eye.
Corneal sensation is measured using a Cochet-Bonnet corneal sensory meter (Handaya Shoten). […] This procedure is repeated 3 times, and the average value for the obtained filament lengths is recorded as the corneal sensation threshold (CST) for that individual.

[4] = test system: rat trigeminal nerve cells; assay: Axon elongation effect on cultured rat trigeminal nerve cells; type: cell-based; details: 1 μM peptide, 24 hours; N=8; Dunnett's test vs control P<0.001; FIG. 5
Method: Rats (Sic: Sprague-Dawley, 17-day-old, including female and male) purchased from Japan SLC, Inc. were euthanized by carbon dioxide gas inhalation and the trigeminal ganglion was harvested. The harvested trigeminal ganglion was washed with Hanks' balanced salt solution (HBSS) and then treated with collagenase A (Roche) for 30 minutes at 37° C. A neuron dispersion (Wako) was then used according to protocol for dispersion of the cells. Debris removal solution (Miltenyi biotec) and Myelin removal beads II (Miltenyi biotec) were used according to protocol to remove the debris and myelin. After suspending the isolated trigeminal nerve cells in culture solution, they were seeded onto a polylysine/laminin-coated 8-well chamber slide (Corning) at 2.5×10^3 cells/well. The culture solution used was Neurobasal-A containing B27 supplement (final concentration: 2%) and GlutaMAX (final concentration: 2 mM) and penicillin/streptomycin (final concentration: 1%). The culturing conditions were a carbon dioxide concentration of 5%, an air concentration of 95%, a humidity of 100% and a temperature of 37° C. […] The control was replaced with peptide-free culture solution. Culture medium replacement was followed by further culturing for 24 hours.
The culture medium was replaced with peptide-containing culture solution, and the rat trigeminal nerve cells cultured for 24 hours were immersed in a 2% paraformaldehyde solution at room temperature for 20 minutes for fixing. The cells were washed with PBS, and then 2% bovine serum albumin containing 0.1% TritonX-100 was added and reaction was conducted for 30 minutes. After washing with PBS, it was reacted with phospho-neurofilament H antibody (Merck, MAB1592-C) specifically recognizing neurofilaments forming the neuron bodies and neurites, for 1 hour at room temperature. After reaction for 1 hour, a fluorescent-labeled secondary antibody (Invitrogen Corp., #A-11031) was reacted at room temperature for 1 hour for fluorescent staining of the sample, and the stained cells were observed under a fluorescent microscope. The stained cell image was captured as an image from the fluorescent microscope and loaded into a computer.
In order to evaluate the extent of neurite formation by the rat trigeminal nerve cells, cells with neurites having lengths of at least twice the cell body diameter in the stained cell image in the computer were counted as neurite-forming cells, and the percentage (%) of this number of cells over the total cell count was calculated (Otori Y. Wei J Y, Barnstable C J. Invest. Ophthalmol Vis Sci (1998) 39, 972-981). The significant difference with respect to the control was determined by Dunnett's test (P<0.001).

SMILES | SPK score [1] | corneal nerve density (Sholl analysis) [2] | corneal sensation threshold (CST) [3] | axon elongation (percentage of neurite-forming cells) [4]
CC[C@H](C)[C@H](NC(=O)CNC(=O)[C@H](CC(=O)O)NC(=O)[C@H](CO)NC(=O)[C@@H](N)Cc1cnc[nH]1)C(=O)N[C@@H](Cc1ccccc1)C(=O)N[C@H](C(=O)N[C@@H](CC(=O)O)C(=O)N[C@@H](CO)C(=O)N[C@@H](Cc1ccc(O)cc1)C(=O)N[C@@H](CO)C(=O)N[C@@H](CCCNC(=N)N)C(=O)N[C@@H](Cc1ccc(O)cc1)C(=O)N[C@@H](CCCNC(=N)N)C(=O)N[C@@H](CCCCN)C(=O)N[C@@H](CCC(N)=O)C(=O)N[C@@H](CCSC)C(=O)N[C@@H](C)C(=O)N[C@H](C(=O)N[C@@H](CCCCN)C(=O)N[C@@H](CCCCN)C(=O)N[C@@H](Cc1ccc(O)cc1)C(=O)N[C@@H](CC(C)C)C(=O)N[C@@H](C)C(=O)N[C@@H](C)C(=O)N[C@H](C(=O)N[C@@H](CC(C)C)C(N)=O)C(C)C)C(C)C)[C@@H](C)O [Peptide 1, reference compound] | improved the increased SPK score | improves reduction in nerve density | improves reduction in corneal sensation | exhibited axon elongation-promoting effects
CC[C@H](C)[C@H](NC(=O)CNC(=O)[C@H](Cc1nnn[nH]1)NC(=O)[C@H](CO)NC(=O)[C@H](Cc1c[nH]cn1)NC(C)=O)C(=O)N[C@@H](Cc1ccccc1)C(=O)N[C@H](C(=O)N[C@@H](Cc1nnn[nH]1)C(=O)N[C@@H](CO)C(=O)N[C@@H](Cc1ccc(O)cc1)C(=O)N[C@@H](CO)C(=O)N[C@@H](CCCNC(=N)N)C(=O)N[C@@H](Cc1ccc(O)cc1)C(=O)N[C@@H](CCCNC(=N)N)C(=O)N[C@@H](CCCCN)C(=O)N[C@@H](CCC(N)=O)C(=O)N[C@@H](CC(C)C)C(=O)N[C@@H](C)C(=O)N[C@H](C(=O)N[C@@H](CCCCN)C(=O)N[C@@H](CCCCN)C(=O)N[C@@H](Cc1ccc(O)cc1)C(=O)N[C@@H](CC(C)C)C(=O)N[C@@H](C)C(=O)N[C@@H](C)C(=O)N[C@H](C(=O)N[C@@H](CC(C)C)C(N)=O)C(C)C)C(C)C)[C@@H](C)O [Peptide 9] (Ac-HS[Ala(1H-tetrazol-5-yl)]GIFT[Ala(1H-tetrazol-5-yl)]SYSRYRKQLAVKKYLAAVL-NH2) | improved the increased SPK score | improves reduction in nerve density | improves reduction in corneal sensation | exhibited axon elongation-promoting effects
